No end group written: not given here.
Assay: Translocation of ^125I-labeled peptide from mouse intestine loop into blood and organs (Example 1)
Format: in vivo, BALB/c mice
Conditions: similar experiments; injected into a mouse intestinal loop; fraction of the full conjugate IBW-002
Description: The tested peptide, representing a penetrating peptide and a radio-labeled probe in a contiguous construct of SEQ ID NO 3 and SEQ ID NO 17, hereby named IBW 002 (Novetide, lot 40139-45, sequence: Ac-NYYDITLALAGICQSARLVQQLAGGGKGGK-NH2 (SEQ ID NO:22), was ^125I-labeled using the Bolton Hunter Reagent (Biochem. J. 133:529-39 (1973)). The labeled peptide was loaded on a Sephadex G10 column, washed with phosphate buffer and eluted with 3M Tiocyanate in DDW+50% n-butanol. The peak, containing 6 fractions, was kept and used for in vivo experiments.
Four male BALB/c mice, 9-10 weeks old, were deprived of food, 18 hours prior to the experiment.
The mice were anesthetized by i.p. injection of 0.05 ml of a mixture of 0.15 ml xylazine+0.85 ml of ketamin. A 2 cm long incision was made along the center of the abdomen, through the skin and abdominal wall. An intestine loop was gently pulled out through the incision and placed on wet gauze beside the animal. The loop remained intact through the entire procedure and was kept wet during the whole time. The tested compound was injected into the loop, 0.2 ml/ mouse, containing around 200,000 cpm, using a 26G needle. Fifteen minutes post injection the tip of the tail was cut and a 50 μl blood sample was drawn into a glass capillary. This was repeated 30 and 60 minutes post injection. The animals were subsequently sacrificed. The following organs were removed: epididymal fat, kidneys, liver, lungs and brain. Radioactivity in each organ and in blood samples was counted. A 5 μl sample of the injected solution was counted to determine the total injected cpm per mouse.
The total radioactive labeling injected per mouse was 224,160 cpm. Total cpm in the blood was calculated based on the 50 μl blood sample drawn out at different time points post injection, in the assumption that total blood volume of each mouse is 2 ml.

Substance	average amount recovered from the blood and various organs, relative to that obtained with IBW-002
GGKGGK (also: 125I label, site not given here) [SEQ ID NO:17, reference compound]	about ⅕

Assay: Relative potency of penetrating peptides as tested in mice (Example 3)
Format: in vivo
Conditions: IBW-002 = 100
Description: Relative Potency of Penetrating Peptides as Tested in Mice.

Substance	Relative potency (%)
AcMYDITLALAGICQSARIVQQLAGGKGGKNH2 [IBW-002V3]	77%
AcNYHDIVLALAGVCQSARLVHQLAGGKGGKNH2 [IBW-006]	77%
AcMNYYDITLALAGICQSARLVQQLAGGGKGGKNH2 (Ac-MNYYDITLALAGICQSARLVQQLAGGGKGGK-NH2) [IBW-002V1]	73%
AcMRNLTRTSLLLAGLCTAAQMVFVGGGKGGKNh2 (Ac-MRNLTRTSLLLAGLCTAAQMVFVGGGKGGK-NH2) [IBW-005]	51%
AcNYFLVNLAFAEASMAAFNTVVNFGGKGGKNH2 (Ac-NYFLVNLAFAEASMAAFNTVVNFGGKGGK-NH2) [IBW-007]	66%
AcNLPPIVLAVIGICAAVFLLQQYVGGGKGGKNH2 (Ac-NLPPIVLAVIGICAAVFLLQQYVGGGKGGK-NH2) [IBW-003]	37%
AcMYYDITLALAGICQSARLVQQLAGGGKGGKNH2 (Ac-MYYDITLALAGICQSARLVQQLAGGGKGGK-NH2) [IBW-002V2]	80%
AcNYFIVNLALADLCMAAFNAAFNFGGGKGGKNH2 (Ac-NYFIVNLALADLCMAAFNAAFNFGGGKGGK-NH2) [IBW-004]	63%

From patent US20050215478A1, “Amino acid sequences capable of facilitating penetration across a biological barrier” (priority 2002, published 2005)
